According to ChEMBL document CHEMBL3351514, “Design and synthesis of new of 3-(benzo[d]isoxazol-3-yl)-1-substituted pyrrolidine-2, 5-dione derivatives as anticonvulsants” (Eur J Med Chem, 2014):
Calls of active or inactive are those of the source. The rule behind the calls is not given here.

Key:
[1] = Neurotoxicity in ip dosed albino Wistar rat at 4 hrs by rotorod test; type: toxicity, organism-based; details: in vivo
Mus musculus [2] = assay: Anticonvulsant activity in ip dosed albino Swiss mouse assessed as assessed as protection against subcutaneous pentylenetetrazol-induced seizures at 0.5 hr; type: functional
Rattus norvegicus [3] = assay: Anticonvulsant activity in albino Wistar rat assessed as protection against maximal electroshock-induced seizures at 30 mg/kg, po at 0.5 hr; type: functional
Rattus norvegicus [4] = assay: Anticonvulsant activity in albino Wistar rat assessed as protection against maximal electroshock-induced seizures at 30 mg/kg, po at 4 hrs; type: functional
[5] = Neurotoxicity in ip dosed albino Wistar rat at 0.5 hr by rotorod test; type: toxicity, organism-based; details: in vivo
Mus musculus [6] = assay: Anticonvulsant activity in ip dosed albino Swiss mouse assessed as protection against maximal electroshock-induced seizures at 0.5 hr; type: functional
Mus musculus [7] = assay: Anticonvulsant activity in ip dosed albino Swiss mouse assessed as protection against maximal electroshock-induced seizures at 4 hrs; type: functional
Rattus norvegicus [8] = assay: Anticonvulsant activity in albino Wistar rat assessed as protection against maximal electroshock-induced seizures at 30 mg/kg, po at 1 hr; type: functional
Rattus norvegicus [9] = assay: Anticonvulsant activity in albino Wistar rat assessed as protection against maximal electroshock-induced seizures at 30 mg/kg, po at 2 hrs; type: functional
Mus musculus [10] = assay: Anticonvulsant activity in ip dosed albino Swiss mouse assessed as assessed as protection against subcutaneous pentylenetetrazol-induced seizures at 4 hrs; type: functional
Rattus norvegicus [11] = assay: Anticonvulsant activity in albino Wistar rat assessed as protection against maximal electroshock-induced seizures at 30 mg/kg, po at 0.25 hr; type: functional
in vivo [12] = details: Wistar, rat, po
Description: Protective index, ratio of TD50 for neurotoxicity in po dosed albino Wistar rat to ED50 for anticonvulsant activity in po dosed albino Wistar rat assessed as protection against maximal electroshock-induced seizures at 1 hr

[13] = Neurotoxicity in po dosed albino Wistar rat at 1 hr by rotorod test; type: toxicity, organism-based; details: in vivo
Mus musculus [14] = assay: Anticonvulsant activity in albino Swiss mouse assessed as protection against maximal electroshock-induced seizures at 300 mg/kg, ip at 4 hrs; type: functional, organism-based; design: dose 300 mg/kg
Rattus norvegicus [15] = assay: Anticonvulsant activity in po dosed albino Wistar rat assessed as protection against maximal electroshock-induced seizures at 1 hr; type: functional
Mus musculus [16] = assay: Anticonvulsant activity in albino Swiss mouse assessed as assessed as protection against subcutaneous pentylenetetrazol-induced seizures at 300 mg/kg, ip at 0.5 hr; type: functional, organism-based; design: dose 300 mg/kg
Mus musculus [17] = assay: Anticonvulsant activity in albino Swiss mouse assessed as assessed as protection against subcutaneous pentylenetetrazol-induced seizures at 300 mg/kg, ip at 4 hrs; type: functional, organism-based; design: dose 300 mg/kg
Rattus norvegicus [18] = assay: Anticonvulsant activity in po dosed albino Wistar rat assessed as protection against maximal electroshock-induced seizures at 2 hrs; type: functional
[19] = Protective index, ratio of TD50 for neurotoxicity in po dosed albino Wistar rat to ED50 for anticonvulsant activity in po dosed albino Wistar rat assessed as protection against maximal electroshock-induced seizures at 2 hrs; type: toxicity, organism-based; details: in vivo, read-out: Ratio TD50/ED50
Rattus norvegicus [20] = assay: Anticonvulsant activity in albino Wistar rat assessed as protection against subcutaneous pentylenetetrazol-induced seizures at 50 mg/kg, po at 0.5 hr; type: functional
Rattus norvegicus [21] = assay: Anticonvulsant activity in albino Wistar rat assessed as protection against subcutaneous pentylenetetrazol-induced seizures at 50 mg/kg, po at 2 hrs; type: functional
Rattus norvegicus [22] = assay: Anticonvulsant activity in albino Wistar rat assessed as protection against subcutaneous pentylenetetrazol-induced seizures at 50 mg/kg, po at 1 hr; type: functional
[23] = Neurotoxicity in po dosed albino Wistar rat at 2 hrs by rotorod test; type: toxicity, organism-based; details: in vivo
[24] = Neurotoxicity in po dosed albino Wistar rat at 4 hrs by rotorod test; type: toxicity, organism-based; details: in vivo
[25] = Protective index, ratio of TD50 for neurotoxicity in po dosed albino Wistar rat to ED50 for anticonvulsant activity in po dosed albino Wistar rat assessed as protection against subcutaneous pentylenetetrazol-induced seizures at 4 hrs; type: toxicity, organism-based; details: in vivo, read-out: Ratio TD50/ED50
Rattus norvegicus [26] = assay: Anticonvulsant activity in po dosed albino Wistar rat assessed as protection against subcutaneous pentylenetetrazol-induced seizures at 4 hrs; type: functional
Rattus norvegicus [27] = assay: Anticonvulsant activity in albino Wistar rat assessed as protection against subcutaneous pentylenetetrazol-induced seizures at 50 mg/kg, po at 4 hrs; type: functional
Mus musculus [28] = assay: Anticonvulsant activity in albino Swiss mouse assessed as protection against maximal electroshock-induced seizures at 300 mg/kg, ip at 0.5 hr; type: functional, organism-based; design: dose 300 mg/kg
in vivo [29] = details: Wistar, rat, po; remark: listed apart in the source
Description: Protective index, ratio of TD50 for neurotoxicity in po dosed albino Wistar rat to ED50 for anticonvulsant activity in po dosed albino Wistar rat assessed as protection against subcutaneous pentylenetetrazol-induced seizures at 2 hrs

Rattus norvegicus [30] = assay: Neurotoxicity in albino Wistar rat at 300 mg/kg, ip at 0.5 hr by rotorod test; type: toxicity, organism-based; design: dose 300 mg/kg, route intraperitoneal; details: in vivo
Rattus norvegicus [31] = assay: Neurotoxicity in albino Wistar rat at 300 mg/kg, ip at 4 hrs by rotorod test; type: toxicity, organism-based; design: dose 300 mg/kg, route intraperitoneal; details: in vivo
Rattus norvegicus [32] = assay: Anticonvulsant activity in po dosed albino Wistar rat assessed as protection against subcutaneous pentylenetetrazol-induced seizures at 2 hrs; type: functional

| Compound | MTD at 4 h [1] [mg/kg] | MED50 (Mus musculus [2]) [mg/kg] | Activity (Rattus norvegicus [3]) [%] | Activity (Rattus norvegicus [4]) [%] | MTD at 0.5 h [5] [mg/kg] | MED50 (Mus musculus [6]) [mg/kg] | MED50 (Mus musculus [7]) [mg/kg] | Activity (Rattus norvegicus [8]) [%] | Activity (Rattus norvegicus [9]) [%] | Activity (Rattus norvegicus [11]) [%] | Activity (Mus musculus [14]) | Activity (Mus musculus [17]) | Activity (Rattus norvegicus [20]) [%] | Activity (Rattus norvegicus [22]) [%] | other results |
| --- | --- | --- | --- | --- | --- | --- | --- | --- | --- | --- | --- | --- | --- | --- | --- |
| O=C1CC(c2noc3ccccc23)C(=O)N1c1ccccc1 (configuration not stated) | 300 | 300 | 25 | 50 | 100 | 30 | 100 | 50 | 50 | 25 | – | – | – | – | MED50 (Mus musculus [10]): 300 mg/kg |
| O=C1NC(=O)C(c2ccccc2)(c2ccccc2)N1 [PHENYTOIN] | 100 | – | 100 | 75 | 100 | 30 | – | 75 | 75 | 25 | inactive | inactive | – | – | selectivity ratio at 1 h (in vivo [12]): > 3.55; TD50 at 1 h [13]: > 100 mg/kg; ED50 (Rattus norvegicus [15]): 28.1 mg/kg; Activity (Mus musculus [16]): inactive |
| O=C1CC(c2noc3ccccc23)C(=O)N1c1ccncc1 (configuration not stated) | – | 300 | – | – | – | 300 | – | – | – | – | inactive | inactive | – | – | – |
| O=C1CC(c2noc3ccccc23)C(=O)N1c1ccc(F)cc1 (configuration not stated) | 300 | 100 | 50 | 100 | 300 | 30 | 30 | 75 | 100 | 25 | – | inactive | 25 | 25 | ED50 (Rattus norvegicus [18]): 14.9 mg/kg; selectivity ratio at 2 h [19]: > 33.5; Activity (Rattus norvegicus [21]): 25%; TD50 at 2 h [23]: > 500 mg/kg |
| CCN1C(=O)CC(c2noc3ccccc23)C1=O (configuration not stated) | – | 300 | – | – | – | 300 | – | – | – | – | inactive | inactive | – | – | – |
| CCCN1C(=O)CC(c2noc3ccccc23)C1=O (configuration not stated) | – | 300 | – | – | – | 300 | – | – | – | – | inactive | inactive | – | – | – |
| O=C1CC(c2noc3ccccc23)C(=O)N1c1ccc(Cl)cc1 (configuration not stated) | – | 300 | – | – | – | 300 | – | – | – | – | inactive | inactive | – | – | – |
| O=C1CC(c2noc3ccccc23)C(=O)N1C1CCCCC1 (configuration not stated) | 300 | 100 | – | – | 300 | 300 | 300 | – | – | – | – | – | 25 | 25 | TD50 at 4 h [24]: > 150 mg/kg; selectivity ratio at 4 h [25]: > 3.54; MED50 (Mus musculus [10]): 100 mg/kg; ED50 (Rattus norvegicus [26]): 42.3 mg/kg; Activity (Rattus norvegicus [21]): 25%; Activity (Rattus norvegicus [27]): 25% |
| O=C1CC(c2noc3ccccc23)C(=O)N1c1cccnc1 (configuration not stated) | – | – | – | – | – | – | – | – | – | – | inactive | inactive | – | – | Activity (Mus musculus [28]): inactive; Activity (Mus musculus [16]): inactive |
| CCC1(C)CC(=O)NC1=O (configuration not stated) [ETHOSUXIMIDE] | – | 100 | – | – | – | – | – | – | – | – | inactive | – | 50 | 25 | selectivity ratio at 2 h (in vivo [29]): > 3; Activity (Rattus norvegicus [30]): Non-toxic; Activity (Rattus norvegicus [31]): Non-toxic; Activity (Mus musculus [28]): inactive; ED50 (Rattus norvegicus [32]): 167 mg/kg; MED50 (Mus musculus [10]): 300 mg/kg; Activity (Rattus norvegicus [21]): 25%; TD50 at 2 h [23]: > 500 mg/kg |
| COc1ccc(N2C(=O)CC(c3noc4ccccc34)C2=O)cc1 (configuration not stated) | 300 | 100 | 25 | 25 | 100 | 100 | 300 | 25 | 50 | 25 | – | inactive | 25 | 25 | – |
| CCCCN1C(=O)CC(c2noc3ccccc23)C1=O (configuration not stated) | 100 | 100 | – | – | 100 | – | – | – | – | – | inactive | inactive | 25 | 25 | Activity (Mus musculus [28]): inactive |
| O=C1CC(c2noc3ccccc23)C(=O)N1c1ccccn1 (configuration not stated) | – | 300 | – | – | – | 300 | – | – | – | – | inactive | inactive | – | – | – |
